Data: US20240368174A1, “Antiviral Heterocyclic Compounds” (Enanta Pharmaceuticals, Inc., priority 2023, published 2024)

Each compound was assayed on HMPV clinical isolate A2 strain TN 94-49 (assay: HMPV antiviral assay, Method 2 (LLC-MK2 cells with CP-100-356, ATP-Lite)). Conditions: human metapneumovirus, 168 h; hMPV A2 TN/94-49, LLC-MK2 cells with 4 μM CP-100-356, 7 days, ATP-Lite.
Assay type: cell-based
Description: In vitro HMPV antiviral activity was evaluated using the clinical isolate A2 strain TN 94-49 (obtained from Dr. John Williams, Vanderbilt University, Tennessee) and LLC-MK2 cells (Millipore Sigma CB_85062804), an immortalized kidney epithelial cell line from Macaca mulatta. Compounds were resuspended in dimethyl sulfoxide (DMSO) at 10 mM, serially diluted and added to a 384-well source plate. Subsequently, the compounds were diluted and transferred onto 384-well assay plates using the Echo-650 automated liquid handling system (Beckman Coulter, Indiana). The test compounds were assessed in duplicate at a top concentration of 200 nM followed by 2.5-fold serial dilutions to give a total of 10 concentration points. DMSO control wells were also included on the assay plates and were either infected or not, acting as positive and negative controls. A2 TN 94-49 virus infections were performed in-suspension with LLC-MK2 cells. The cells were washed twice with PBS and removed from the cell-culture flask with 0.25% trypsin-EDTA (Thermo Fisher Scientific, MA). The trypsin-EDTA was inactivated by resuspending in 2% fetal bovine serum (FBS) and OptiMEM (ThermoFisher Scientific, MA) containing 1% antibiotic-antimycotic. Cells were pelleted by centrifuging for 5 minutes at 800 rpm, the supernatant was removed, and cells were re-suspended and washed in PBS plus 100 μg/mL CaCl2). This step was performed twice. Cells were then re-suspended in serum-free (SF)-OptiMEM containing 4 μg/mL TPCK-Trypsin (Sigma Aldrich, MO), 1% antibiotic-antimycotic (ThermoFisher Scientific, MA), 100 μg/mL CaCl2), and 4 μM of CP-100-356, a P-glycoprotein inhibitor. Cells were counted and seeded at a density of 5,000 cells/well, 12.5 μL/well. Virus infections were done at a multiplicity of infection (MOI) of 0.16 with 12.5 μL added per well. Virus infections were performed in infection media which contained SF-OptiMEM, 100 μg/mL CaCl2) and 1% antibiotic-antimycotic. HMPV viral stocks are suspended in infection media+5% glycerol, thus an equal volume of infection media+5% glycerol was added to uninfected wells to equalize the final % glycerol across all wells of the assay plate. The final concentration of TPCK-trypsin was 2 μg/mL. The final concentration of CP-100-356 was 2 μM. The assay plates were incubated at 37° C., 5% CO2 for 7 days. After 7 days incubation, 12.5 μL of ATP-Lite (PerkinElmer, MA) was added to each well and the raw luminescence values were determined using the Envision 2104 (Perkin Elmer, MA). The average of the raw luminescence values for the cells and virus only positive control wells was subtracted from all conditions tested and the percent cell health was determined by dividing these values by the average of the cells only negative control wells. EC50 values were then calculated by non-linear regression using a four-parameter curve logistic equation. The curve fit model employed was XLFit Dose Response One Site Model 200: y=(A+(B/(1+((x/C)^D)))), where A is the minimum y value, B is the maximum y value, C is the log EC50 value, and D is the slope factor.

| EC50 [nM] | SMILES |
| --- | --- |
| < 200 | COc1nccc(-c2nc([C@@](O)(CNC(=O)c3cc(OC)c4nn(C(F)F)cc4c3)C3(F)CC3)cc3c2OC[C@]3(C)C(N)=O)c1Cl [Example 655] |
| < 200 | COc1cc(C(=O)NC[C@@](O)(c2ccccc2)c2cc3c(c(-n4ncc5c(F)cccc54)n2)OC[C@]3(C)C(N)=O)cc2cn(C(F)F)nc12 [Example 636] |
| < 200 | COc1cc(C(=O)NC[C@@](O)(c2ccccc2)c2cc3c(c(-c4ccnc(C)c4Cl)n2)OC[C@]3(C)C(N)=O)cc2cn(C3CC3)nc12 [Example 692] |
| < 200 | COc1cc(C(=O)NC[C@](O)(c2cc3c(c(-n4ccc5ccccc54)n2)OC[C@]3(C)C(N)=O)C(F)(F)F)cc2cn(C(F)F)nc12 [Example 843] |
| < 200 | COc1cc(C(=O)NC[C@@](O)(c2ccccc2)c2cc3c(c(-c4ccnc(F)c4Cl)n2)OC[C@]3(C)C(N)=O)cn2cc(C3CC3)nc12 [Example 664] |
| < 200 | COc1cc(C(=O)NC[C@](O)(c2cc3c(c(-c4cc(C(F)(F)F)ncc4F)n2)OC[C@]3(C)C(N)=O)C2(F)CC2)cc2cn(C3(F)CC3)nc12 [Example 666] |
| < 200 | COc1nccc(-c2nc([C@@](O)(CNC(=O)c3cc(OC4CC4)c4nn(C5CC5)cc4c3)C(C)C)cc3c2OC[C@]3(C)C(N)=O)c1Cl [Example 893] |
| < 200 | COc1nccc(-c2nc([C@@](O)(CNC(=O)c3cc(OC4CC4)c4nn(C(F)F)cc4c3)c3ccccc3)cc3c2OC[C@]3(C)C(N)=O)c1Cl [Example 901] |
| > 200 | COc1cc(C(=O)NC[C@](O)(c2cc3c(c(-c4ccnc(C5CCOCC5)c4Cl)n2)OC[C@]3(C)C(N)=O)C2CC2)cc2cn(C3(F)CC3)nc12 [Example 905] |
| < 200 | [2H]C([2H])([2H])c1nc2c(OC)cc(C(=O)NC[C@@](O)(c3ccccc3)c3cc4c(c(-n5ncc6c(F)cccc65)n3)OC[C@]4(C)C(N)=O)cc2s1 [Example 637] |
| > 200 | COc1cc(C(=O)NC[C@](O)(c2cc3c(c(-n4ncc5c4CCCC5)n2)OC[C@]3(C)C(N)=O)C2CC2)cc2cn(C3(F)CC3)nc12 [Example 643] |
| > 200 | COc1cc(C(=O)NC[C@](O)(c2cc3c(c(-c4ccnc(N5CCOCC5)c4Cl)n2)OC[C@]3(C)C(N)=O)C2CC2)cc2cn(C3CC3)nc12 [Example 805] |
| < 200 | C[C@]1(C(N)=O)COc2c1cc([C@@](O)(CNC(=O)c1cc(Cl)c3nn(C4CC4)cc3c1)C1CC1)nc2-c1cc(C(F)(F)F)ncc1F [Example 660] |

Same assay, conditions: human metapneumovirus; hMPV A2 TN/94-49, LLC-MK2 cells with CP-100-356, Method 2

| EC50 [nM] | SMILES |
| --- | --- |
| < 200 | Cc1nc2c(OC3CC3)cc(C(=O)NC[C@@](O)(c3ccccc3)c3cc4c(c(-c5cc(Cl)c(F)cc5F)n3)OC[C@]4(C)C(N)=O)cc2s1 [Example 189] |
| < 200 | COc1cc(C(=O)NC[C@](O)(c2cc3c(c(-c4cc(F)ncc4F)n2)OC[C@]3(C)C(N)=O)C2CC2)cc2cn(C3CC3)nc12 [Example 382] |
| < 200 | C[C@]1(C(N)=O)COc2c1cc([C@@](O)(CNC(=O)c1ccc3nc(C4(F)CC4)oc3c1)c1ccccc1)nc2-c1cc(Cl)c(F)cc1F [Example 219] |
| < 200 | COc1cc(C(=O)NC[C@](O)(c2cc3c(c(-c4ccnc(Cl)c4Cl)n2)OC[C@]3(C)C(N)=O)C2(F)CC2)cc2oc(C3CC3)nc12 [Example 520] |
| < 200 | COc1cc(C(=O)NC[C@](O)(c2cc3c(c(-c4cc(C(F)(F)F)c(F)cc4F)n2)OC[C@]3(C)C(N)=O)C2CC2)cc2cc(C(F)(F)F)cnc12 [Example 329] |
| > 200 | COc1cc(C(=O)NC[C@](O)(c2cc3c(c(-c4ccnc(C)c4Cl)n2)OC[C@]3(C)C(N)=O)C2(F)CC2)cc2oc(C3(F)CC3)nc12 [Example 532] |
| < 200 | COc1cc(C(=O)NC[C@@](O)(c2cncnc2)c2cc3c(c(-c4cc(Cl)c(F)cc4F)n2)OC[C@]3(C)C(N)=O)cc2cn(C3CC3)nc12 [Example 479] |
| < 200 | C[C@]1(C(N)=O)COc2c1cc([C@@](O)(CNC(=O)c1cc(OC(F)F)c3nc(C4CC4)oc3c1)c1ccccc1)nc2-c1cc(Cl)c(F)cc1F [Example 216] |
| < 200 | COc1nccc(-c2nc([C@@](O)(CNC(=O)c3cc(OC)c4nc(C)sc4c3)C(F)(F)F)cc3c2OC[C@]3(C)C(N)=O)c1Cl [Example 546] |
| < 200 | COc1cc(C(=O)NC[C@@](O)(c2ccccc2)c2cc3c(c(-c4ccc5c(c4)OC(F)(F)O5)n2)OC[C@]3(C)C(N)=O)cc2oc(C3CC3)nc12 [Example 200] |
| < 200 | COc1cc(C(=O)NC[C@](O)(c2cc3c(c(-c4ccnc(C(F)(F)F)c4Cl)n2)OC[C@]3(C)C(N)=O)C2CC2)cn2cc(C3CC3)nc12 [Example 580] |
| < 200 | COc1cc(C(=O)NC[C@@](O)(c2ccccc2)c2cc3c(c(-c4cc(F)c(F)cc4F)n2)OC[C@]3(C)C(N)=O)cc2oc(C3CC3)nc12 [Example 195] |
| > 200 | C[C@]1(C(N)=O)COc2c1cc([C@@](O)(CNC(=O)c1cc(Cl)c3[nH]ncc3c1)c1ccccc1)nc2-c1cc(Cl)c(F)cc1F [Example 117] |
| < 200 | COc1cc(C(=O)NCC(O)(c2cc(F)nc(F)c2)c2cc3c(c(-c4cccc(Cl)c4Cl)n2)OC[C@]3(C)C(N)=O)cc2cn(C(F)F)nc12 (stereo partly drawn) [Example 500] |
| > 200 | COc1cc(C(=O)NC[C@@](O)(c2ccccc2)c2cc3c(c(-c4cc(Cl)c(F)cc4F)n2)OC[C@]3(C)C(N)=O)cc(O)c1NC(=O)C1(F)CC1 [Example 242] |
| < 200 | COc1cc(C(=O)NC[C@@](O)(c2ccccc2)c2cc3c(c(-c4cc(Cl)c(F)cc4F)n2)OC[C@]3(C)C(N)=O)cc2oc(N)nc12 [Example 237] |
| > 200 | Cc1cc(C(=O)NC[C@](O)(c2cc3c(c(-c4cc(F)c(F)cc4F)n2)OC[C@]3(C)C(N)=O)C2CC2)cc2cn[nH]c12 [Example 120] |
| > 200 | COc1cc(-c2nc([C@@](O)(CNC(=O)c3cc(OC)c4nn(C5(F)CC5)cc4c3)c3ccccc3)cc3c2OC[C@]3(C)C(N)=O)c(F)cc1F [Example 364] |
| > 200 | COc1cc(C(=O)NC[C@@](O)(c2ccc(=O)[nH]c2)c2cc3c(c(-c4cc(Cl)c(F)cc4F)n2)OC[C@]3(C)C(N)=O)cc2cn(C3CC3)nc12 [Example 505] |
| < 200 | C[C@]1(C(N)=O)COc2c1cc([C@@](O)(CNC(=O)c1cc(OC3CC3)c3nn(C4(F)CC4)cc3c1)C(F)(F)F)nc2-c1ccnc(C(F)(F)F)c1Cl [Example 595] |
| < 200 | COc1cc(C(=O)NC[C@@](O)(c2cccc(F)c2)c2cc3c(c(-c4ccnc(C)c4Cl)n2)OC[C@]3(C)C(N)=O)cc2cn(C(F)F)nc12 [Example 538] |
| < 200 | COc1cc(C(=O)NC[C@](O)(c2cc3c(c(-c4ccnc(Cl)c4Cl)n2)OC[C@]3(C)C(N)=O)C2CC2)cn2cc(C3CC3)nc12 [Example 578] |
| < 200 | COc1cc(C(=O)NC[C@@](O)(c2ccccc2)c2cc3c(c(-c4ccnc(C(F)F)c4Cl)n2)OC[C@]3(C)C(N)=O)cc2oc(C3CC3)nc12 [Example 564] |
| < 200 | COc1cc(C(=O)NC[C@](O)(c2cc3c(c(-c4ccnc(Cl)c4Cl)n2)OC[C@]3(C)C(N)=O)C2(F)CC2)cc2sc(C)nc12 [Example 524] |
| < 200 | COc1cc(C(=O)NC[C@@](O)(c2cccc(F)n2)c2cc3c(c(-c4cc(Cl)c(F)cc4F)n2)OC[C@]3(C)C(N)=O)cc2cn(C(F)F)nc12 [Example 205] |
| < 200 | COc1cc(C(=O)NC[C@@](O)(c2ccccc2)c2cc3c(c(-c4cccc(Cl)c4F)n2)OC[C@]3(C)C(N)=O)cc2cn(C3(F)CC3)nc12 [Example 369] |
| > 200 | COc1cc(C(=O)NC[C@](O)(c2cc3c(c(-c4ccnc(C)c4Cl)n2)OC[C@]3(C)C(N)=O)C2(F)CC2)cc2sc(C)nc12 [Example 530] |
| < 200 | COc1cc(C(=O)NC[C@@](O)(c2ccccc2)c2cc3c(c(-c4cc(Cl)c(F)cc4F)n2)OC[C@]3(C)C(N)=O)cc2oc(C3(F)CC3)nc12 [Example 241] |
| > 200 | C[C@]1(C(N)=O)COc2c1cc([C@@](O)(CNC(=O)c1ccc3nc(Cc4ccccc4)oc3c1)c1ccccc1)nc2-c1cc(Cl)c(F)cc1F [Example 230] |
